pIC50: −log10 of the molar value.
Target: T1, ATP-dependent 6-phosphofructokinase (Trypanosoma brucei, UniProt O15648)
T1 sequence (O15648 whole entry): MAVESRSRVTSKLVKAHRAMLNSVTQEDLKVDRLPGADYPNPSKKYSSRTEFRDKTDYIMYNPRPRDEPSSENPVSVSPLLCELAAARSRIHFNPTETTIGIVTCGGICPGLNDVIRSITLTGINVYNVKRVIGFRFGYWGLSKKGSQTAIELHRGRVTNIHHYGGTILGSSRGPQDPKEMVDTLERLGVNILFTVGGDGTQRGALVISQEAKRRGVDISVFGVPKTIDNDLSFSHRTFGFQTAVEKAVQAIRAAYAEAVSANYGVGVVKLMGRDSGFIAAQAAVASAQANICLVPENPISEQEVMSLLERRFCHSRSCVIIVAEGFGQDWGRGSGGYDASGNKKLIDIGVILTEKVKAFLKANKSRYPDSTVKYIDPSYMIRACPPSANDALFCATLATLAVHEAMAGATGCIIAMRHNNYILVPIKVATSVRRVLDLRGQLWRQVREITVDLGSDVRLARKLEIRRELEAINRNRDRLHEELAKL
Assay: Inhibition of Trypanosoma brucei phosphofructokinase

pIC50 | Structure (SMILES)
3.05 | OC[C@H]1O[C@H](CNc2ccc3ccccc3c2)[C@@H](O)[C@@H]1O
3.39 | OC[C@H]1O[C@H](CNc2ccc(Cl)c(Cl)c2)[C@@H](O)[C@@H]1O
